Measurements: ChEMBL document CHEMBL1137898, “Benzopyranones with retro-amide side chains as (inhibitory) beta-lactamase substrates” (Bioorg Med Chem Lett, 2004)

Columns and labels:
[1] = molecular target: Beta-lactamase (Enterobacter cloacae) (UniProt P05364); test: Steady state kinetic as limiting rate of Enterobacter cloacae P99 Beta-lactamase catalyzed hydrolysis
[2] = molecular target: Beta-lactamase TEM (Escherichia coli) (UniProt P62593); test: Steady state kinetic as limiting rate of TEM-2 beta-lactamase hydrolysis
Chain of Beta-lactamase TEM (Escherichia coli) (P62593 whole entry): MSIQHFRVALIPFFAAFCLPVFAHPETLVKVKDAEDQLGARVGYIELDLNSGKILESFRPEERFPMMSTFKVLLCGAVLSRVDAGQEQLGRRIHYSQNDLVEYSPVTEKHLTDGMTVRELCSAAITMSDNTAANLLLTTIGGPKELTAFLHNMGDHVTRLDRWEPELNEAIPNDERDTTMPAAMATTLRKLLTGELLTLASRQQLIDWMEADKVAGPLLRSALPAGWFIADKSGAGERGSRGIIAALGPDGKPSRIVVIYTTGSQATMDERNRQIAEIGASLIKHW

[3] = molecular target: Beta-lactamase (Staphylococcus aureus) (UniProt P00807); test: Steady state kinetic as limiting rate of Staphylococcus aureus PC1 Beta-lactamase hydrolysis
Chain of Beta-lactamase (Staphylococcus aureus) (P00807 whole entry): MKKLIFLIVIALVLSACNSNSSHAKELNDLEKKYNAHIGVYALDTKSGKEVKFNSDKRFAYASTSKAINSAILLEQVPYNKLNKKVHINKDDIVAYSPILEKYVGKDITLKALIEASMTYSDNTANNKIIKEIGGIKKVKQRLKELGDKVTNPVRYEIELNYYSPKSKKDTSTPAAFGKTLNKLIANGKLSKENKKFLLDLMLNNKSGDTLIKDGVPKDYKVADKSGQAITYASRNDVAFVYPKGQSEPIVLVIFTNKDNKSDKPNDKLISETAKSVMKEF

[4] = molecular target: D-alanyl-D-alanine carboxypeptidase (Streptomyces sp. R61) (UniProt P15555); test: Second order rate constant for inactivation of Streptomyces R61 D-alanyl-D-alanine carboxypeptidase; conditions: Streptomyces spp.
Chain of D-alanyl-D-alanine carboxypeptidase (Streptomyces sp. R61) (P15555 whole entry): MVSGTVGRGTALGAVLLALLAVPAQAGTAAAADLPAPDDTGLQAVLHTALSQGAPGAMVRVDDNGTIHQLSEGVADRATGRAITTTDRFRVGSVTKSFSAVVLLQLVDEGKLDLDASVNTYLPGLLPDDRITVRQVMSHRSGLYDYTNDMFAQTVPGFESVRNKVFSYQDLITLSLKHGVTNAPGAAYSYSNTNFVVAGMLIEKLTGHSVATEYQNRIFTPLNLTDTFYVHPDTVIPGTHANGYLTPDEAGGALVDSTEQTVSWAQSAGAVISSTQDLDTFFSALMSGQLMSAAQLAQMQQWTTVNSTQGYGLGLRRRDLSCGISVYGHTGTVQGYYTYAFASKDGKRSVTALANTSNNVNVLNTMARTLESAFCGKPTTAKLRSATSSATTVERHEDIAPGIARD

[5] = molecular target: Beta-lactamase OXA-1 (Escherichia coli) (UniProt P13661); test: Steady state kinetic as limiting rate of OXA-1 beta-lactamase hydrolysis
Chain of Beta-lactamase OXA-1 (Escherichia coli) (P13661 whole entry): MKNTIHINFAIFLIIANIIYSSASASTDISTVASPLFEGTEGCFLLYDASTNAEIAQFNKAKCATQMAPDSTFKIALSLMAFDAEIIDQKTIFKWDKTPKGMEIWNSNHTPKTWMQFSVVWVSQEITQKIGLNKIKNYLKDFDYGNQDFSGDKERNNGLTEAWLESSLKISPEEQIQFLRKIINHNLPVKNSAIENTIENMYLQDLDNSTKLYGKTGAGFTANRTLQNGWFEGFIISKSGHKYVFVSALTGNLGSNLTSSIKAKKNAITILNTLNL

Chain of Beta-lactamase (Enterobacter cloacae) (P05364 21-381 limits assumed): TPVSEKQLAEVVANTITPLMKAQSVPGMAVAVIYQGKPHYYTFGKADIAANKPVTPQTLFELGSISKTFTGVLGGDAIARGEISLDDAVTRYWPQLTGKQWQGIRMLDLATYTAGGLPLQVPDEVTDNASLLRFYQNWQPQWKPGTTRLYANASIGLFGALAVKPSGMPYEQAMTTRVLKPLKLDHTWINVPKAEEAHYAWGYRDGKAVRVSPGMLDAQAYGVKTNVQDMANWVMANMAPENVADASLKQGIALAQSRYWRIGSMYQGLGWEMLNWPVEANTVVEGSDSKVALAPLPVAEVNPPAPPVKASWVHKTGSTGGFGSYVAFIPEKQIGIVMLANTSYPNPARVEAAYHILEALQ

## O=C(O)c1ccc2c(c1)OC(=O)C(C(=O)NCc1ccccc1)C2 (stereo not given)
[1]
  K cat: 1.18 s⁻¹
[2]
  K cat: > 0.02 s⁻¹
[3]
  K cat: > 0.005 s⁻¹

## O=C(Cc1ccccc1)NC1Cc2cccc(C(=O)O)c2OC1=O (stereo not given)
[4]
  K: 1.5 1/sM
[5]
  K cat: 1.2 s⁻¹
[1]
  K cat: 5.4 s⁻¹
[2]
  K cat: 2.07 s⁻¹
[3]
  K cat: 0.0047 s⁻¹

## O=C(O)c1cccc2c1OC(=O)C(C(=O)NCc1ccccc1)C2 (stereo not given)
[4]
  K: 22 1/sM
[5]
  K cat: 0.25 s⁻¹
[1]
  K cat: 0.44 s⁻¹
[2]
  K cat: 25.5 s⁻¹
[3]
  K cat: 0.01 s⁻¹

## O=C(Cc1ccccc1)NC1Cc2ccc(C(=O)O)cc2OC1=O (stereo not given)
[1]
  K cat: 5.6 s⁻¹
[2]
  K cat: > 1 s⁻¹
[3]
  K cat: 0.02 s⁻¹

## CC(=O)OCC1=C(C(=O)O)N2C(=O)[C@@H](NC(=O)Cc3cccs3)[C@H]2SC1
[5]
  K cat: 1.2 s⁻¹
[1]
  K cat: 200 s⁻¹
[2]
  K cat: 120 s⁻¹
[3]
  K cat: 0.001 s⁻¹
